Experiments:
hTRPV1 [1] = molecular target: T1, hTRPV1 (Homo sapiens, UniProt Q8NER1); assay: FLIPR inhibition of TRPV1 activation by capsaicin; type: cell-based; conditions: for antagonism toward capsaicin (in words): capsaicin 100 nM, hTRPV1 in CHO cells
hTRPV1 [2] = molecular target: T1, hTRPV1; assay: hTRPV1 antagonism toward pH activation; type: cell-based; conditions: activator pH
hTRPV1 [3] = molecular target: T1, hTRPV1; assay: hTRPV1 antagonism toward heat; type: cell-based
hTRPV1 [4] = molecular target: T1, hTRPV1; assay: hTRPV1 antagonism toward NADA activation; type: cell-based; conditions: activator NADA
[5] = tested on: CCI-induced cold allodynia; assay: Mouse chronic constriction injury; type: in vivo; conditions: mouse CCI model, po

T1 sequence (Q8NER1 whole entry): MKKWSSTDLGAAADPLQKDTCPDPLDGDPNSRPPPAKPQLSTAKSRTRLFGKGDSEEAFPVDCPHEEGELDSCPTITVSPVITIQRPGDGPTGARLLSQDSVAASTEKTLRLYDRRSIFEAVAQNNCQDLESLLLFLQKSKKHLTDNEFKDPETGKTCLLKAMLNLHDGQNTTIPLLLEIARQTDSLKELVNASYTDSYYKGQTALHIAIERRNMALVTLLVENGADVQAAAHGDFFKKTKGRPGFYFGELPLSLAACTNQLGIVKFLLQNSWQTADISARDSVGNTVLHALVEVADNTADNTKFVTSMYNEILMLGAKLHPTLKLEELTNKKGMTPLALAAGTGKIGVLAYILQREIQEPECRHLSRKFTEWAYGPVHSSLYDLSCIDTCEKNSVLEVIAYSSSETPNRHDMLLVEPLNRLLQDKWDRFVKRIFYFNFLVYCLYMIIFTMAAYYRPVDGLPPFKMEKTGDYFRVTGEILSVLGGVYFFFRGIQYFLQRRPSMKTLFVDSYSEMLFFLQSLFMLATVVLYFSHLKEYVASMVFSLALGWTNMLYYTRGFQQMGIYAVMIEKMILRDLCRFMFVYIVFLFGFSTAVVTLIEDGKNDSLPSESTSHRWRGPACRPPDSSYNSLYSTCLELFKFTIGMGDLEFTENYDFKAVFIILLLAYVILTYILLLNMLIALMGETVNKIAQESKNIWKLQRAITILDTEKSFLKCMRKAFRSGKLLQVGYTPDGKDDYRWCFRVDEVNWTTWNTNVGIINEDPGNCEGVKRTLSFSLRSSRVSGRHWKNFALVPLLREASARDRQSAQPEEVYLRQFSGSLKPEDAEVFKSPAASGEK

Row | Compound | antagonism toward capsaicin (in words) (hTRPV1 [1]) | fold increase in potency compared to 8 (hTRPV1 [1]; Ki(CAP) relative to parent 8) | further results
1 | CC(C(=O)NCc1ccc(C(F)(F)F)nc1-c1ccccc1)c1ccc(NS(C)(=O)=O)c(F)c1 (stereo not drawn) [Compound 8] | reasonable antagonism | – | fold less potent than the 2-cyclohexyl derivative (hTRPV1 [1]; Ki(CAP) relative to 2-cyclohexyl derivative): ca. 10 fold
2 | CC(C(=O)NCc1ccc(C(F)(F)F)nc1-c1ccc(F)cc1)c1ccc(NS(C)(=O)=O)c(F)c1 (stereo not drawn) [Compound 9] | excellent antagonism | 16 fold | antagonism toward pH (in words) (hTRPV1 [2]): moderate antagonism; IC50 (hTRPV1 [3]): 25.9 nM; antagonism toward heat (in words) (hTRPV1 [3]; activator heat): moderate antagonism; antagonism toward NADA (in words) (hTRPV1 [4]): excellent antagonism; anti-allodynic efficacy (limited efficacy) [5]: 53 % MPE
3 | CC(C(=O)NCc1ccc(C(F)(F)F)nc1-c1cccc(F)c1)c1ccc(NS(C)(=O)=O)c(F)c1 (stereo not drawn) [Compound 10] | – | 5 fold | –
4 | CC(C(=O)NCc1ccc(C(F)(F)F)nc1-c1ccccc1F)c1ccc(NS(C)(=O)=O)c(F)c1 (stereo not drawn) [Compound 11] | – | – | fold reduction in potency compared to 8 (hTRPV1 [1]; Ki(CAP) relative to parent 8): 10 fold
5 | CC(C(=O)NCc1ccc(C(F)(F)F)nc1-c1ccc(Cl)cc1)c1ccc(NS(C)(=O)=O)c(F)c1 (stereo not drawn) [Compound 12] | – | 9 fold | –
6 | CC(C(=O)NCc1ccc(C(F)(F)F)nc1-c1cccc(Cl)c1)c1ccc(NS(C)(=O)=O)c(F)c1 (stereo not drawn) [Compound 13] | – | 13 fold | –
7 | COc1ccc(-c2nc(C(F)(F)F)ccc2CNC(=O)C(C)c2ccc(NS(C)(=O)=O)c(F)c2)cc1 (stereo not drawn) [Compound 14] | – | 6 fold | –
8 | CC(C(=O)NCc1ccc(C(F)(F)F)nc1-c1ccc(N(C)C)cc1)c1ccc(NS(C)(=O)=O)c(F)c1 (stereo not drawn) [Compound 15] | – | 2 fold | –
9 | CC(C(=O)NCc1ccc(C(F)(F)F)nc1-c1ccc(C(C)(C)C)cc1)c1ccc(NS(C)(=O)=O)c(F)c1 (stereo not drawn) [Compound 16] | – | 13 fold | –
10 | CC(C(=O)NCc1ccc(C(F)(F)F)nc1-c1cccc(NS(C)(=O)=O)c1)c1ccc(NS(C)(=O)=O)c(F)c1 (stereo not drawn) [Compound 17] | lack of activity | – | –
11 | CC(C(=O)NCc1ccc(C(F)(F)F)nc1-c1ccc(F)c(Cl)c1)c1ccc(NS(C)(=O)=O)c(F)c1 (stereo not drawn) [Compound 18] | – | ca. 30 fold | –
12 | Cc1cc(-c2nc(C(F)(F)F)ccc2CNC(=O)C(C)c2ccc(NS(C)(=O)=O)c(F)c2)ccc1F (stereo not drawn) [Compound 19] | retained high potencies | – | –
13 | CC(C(=O)NCc1ccc(C(F)(F)F)nc1-c1ccc(Cl)c(Cl)c1)c1ccc(NS(C)(=O)=O)c(F)c1 (stereo not drawn) [Compound 20] | retained high potencies | – | –
14 | CC(C(=O)NCc1ccc(C(F)(F)F)nc1-c1cccs1)c1ccc(NS(C)(=O)=O)c(F)c1 (stereo not drawn) [Compound 26] | – | ca. 20 fold | –
15 | CC(C(=O)NCc1ccc(C(F)(F)F)nc1-c1ccsc1)c1ccc(NS(C)(=O)=O)c(F)c1 (stereo not drawn) [Compound 27] | potent antagonist | – | –
16 | CC(C(=O)NCc1ccc(C(F)(F)F)nc1-c1ccco1)c1ccc(NS(C)(=O)=O)c(F)c1 (stereo not drawn) [Compound 28] | higher potency than phenyl derivative 8 | – | –
17 | CC(C(=O)NCc1ccc(C(F)(F)F)nc1-c1ccoc1)c1ccc(NS(C)(=O)=O)c(F)c1 (stereo not drawn) [Compound 29] | higher potency than phenyl derivative 8 | – | –
18 | CC(C(=O)NCc1ccc(C(F)(F)F)nc1-n1ccnc1)c1ccc(NS(C)(=O)=O)c(F)c1 (stereo not drawn) [Compound 30] | weak antagonist | – | –
19 | CC(C(=O)NCc1ccc(C(F)(F)F)nc1Cc1ccccc1)c1ccc(NS(C)(=O)=O)c(F)c1 (stereo not drawn) [Compound 35] | weak antagonist | – | –
20 | CC(C(=O)NCc1ccc(C(F)(F)F)nc1CCc1ccccc1)c1ccc(NS(C)(=O)=O)c(F)c1 (stereo not drawn) [Compound 36] | dramatic increase in antagonism | – | –

Reference: publication PMC6980356 (Bioorganic & medicinal chemistry letters, 2014)
